According to PubChem BioAssay (NCI):
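Exposure lasted 48 hours, with cells grown in 96-well plates and compounds tested at five concentrations. GI50: concentration for 50% inhibition of growth. TGI denotes the concentration required for complete inhibition of growth.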

What was measured:
Test in all cases: inhibition of tumour cell growth, NCI panel, 48 h
[1] = test system: HOP-62 NSCLC
[2] = test system: SK-OV-3 ovarian
[3] = test system: KM12 colon
[4] = test system: UACC-62 melanoma
[5] = test system: HOP-92 NSCLC
[6] = test system: EKVX NSCLC
[7] = test system: NCI-H226 lung
[8] = test system: HL-60(TB) leukemia
[9] = test system: NCI-H23 lung
[10] = test system: RPMI-8226 leukemia
[11] = test system: UO-31 renal
[12] = test system: CAKI-1 renal
[13] = test system: OVCAR-4 ovarian
[14] = test system: OVCAR-8 ovarian
[15] = test system: SF-268 CNS
[16] = test system: U251 CNS
[17] = test system: SN12C renal
[18] = test system: NCI-H460 lung
[19] = test system: MOLT-4 leukemia
[20] = test system: NCI/ADR-RES ovarian
[21] = test system: HCT-15 colon
[22] = test system: K-562 leukemia
[23] = test system: NCI-H522 lung
[24] = test system: BT-549 breast
[25] = test system: HCT-116 colon
[26] = test system: HS 578T breast
[27] = test system: SK-MEL-2 melanoma
[28] = test system: COLO 205 colon
[29] = test system: SNB-75 CNS
[30] = test system: LOX IMVI melanoma
[31] = test system: TK-10 renal
[32] = test system: M14 melanoma
[33] = test system: RXF 393 renal
[34] = test system: A549 NSCLC
[35] = test system: 786-0 renal
[36] = test system: SW-620 colon
[37] = test system: SF-295 CNS
[38] = test system: MALME-3M melanoma
[39] = test system: HT29 colon
[40] = test system: MDA-MB-231 breast
[41] = test system: SK-MEL-28 melanoma
[42] = test system: PC-3 prostate
[43] = test system: DU-145 prostate
[44] = test system: OVCAR-3 ovarian
[45] = test system: SK-MEL-5 melanoma
[46] = test system: SNB-19 CNS
[47] = test system: SF-539 CNS
[48] = test system: A498 renal
[49] = test system: T-47D breast
[50] = test system: MDA-MB-435
[51] = test system: HCC-2998 colon
[52] = test system: ACHN renal
[53] = test system: OVCAR-5 ovarian
[54] = test system: UACC-257 melanoma
[55] = test system: CCRF-CEM leukemia
[56] = test system: MCF7 breast
[57] = test system: IGROV1 ovarian
[58] = test system: SR leukemia

`COc1ccc(S(=O)(=O)N2CCNCC2)cc1OC` was tested, and the GI50 [1] was > 100 µM, the TGI [1] was > 100 µM and the GI50 [2] was > 100 µM. For the same compound, the TGI [2] was > 100 µM, the GI50 [3] was > 100 µM and the TGI [3] was > 100 µM. For the same compound, the GI50 [4] was > 100 µM, the TGI [4] was > 100 µM and the GI50 [5] was > 100 µM. The TGI [5] was > 100 µM, the GI50 [6] was > 100 µM and the TGI [6] was > 100 µM. The GI50 [7] was > 100 µM, the TGI [7] was > 100 µM and the GI50 [8] was > 100 µM. The TGI [8] was > 100 µM, the GI50 [9] was > 100 µM and the TGI [9] was > 100 µM. For the same compound, the GI50 [10] was > 100 µM, the TGI [10] was > 100 µM and the GI50 [11] was > 100 µM. The TGI [11] was > 100 µM, the GI50 [12] was > 100 µM and the TGI [12] was > 100 µM. For the same compound, the GI50 [13] was > 100 µM, the TGI [13] was > 100 µM and the GI50 [14] was > 100 µM. For the same compound, the TGI [14] was > 100 µM, the GI50 [15] was > 100 µM and the TGI [15] was > 100 µM. The GI50 [16] was > 100 µM, the TGI [16] was > 100 µM and the GI50 [17] was > 100 µM. For the same compound, the TGI [17] was > 100 µM, the GI50 [18] was > 100 µM and the TGI [18] was > 100 µM. For the same compound, the GI50 [19] was > 100 µM, the TGI [19] was > 100 µM and the GI50 [20] was > 100 µM. For the same compound, the TGI [20] was > 100 µM, the GI50 [21] was > 100 µM and the TGI [21] was > 100 µM. The GI50 [22] was > 100 µM, the TGI [22] was > 100 µM and the GI50 [23] was > 100 µM. For the same compound, the TGI [23] was > 100 µM, the GI50 [24] was > 100 µM and the TGI [24] was > 100 µM. For the same compound, the GI50 [25] was > 100 µM, the TGI [25] was > 100 µM and the GI50 [26] was > 100 µM. The TGI [26] was > 100 µM, the GI50 [27] was > 100 µM and the TGI [27] was > 100 µM. The GI50 [28] was > 100 µM, the TGI [28] was > 100 µM and the GI50 [29] was > 100 µM. For the same compound, the TGI [29] was > 100 µM, the GI50 [30] was > 100 µM and the TGI [30] was > 100 µM. The GI50 [31] was > 100 µM, the TGI [31] was > 100 µM and the GI50 [32] was > 100 µM. The TGI [32] was > 100 µM, the GI50 [33] was > 100 µM and the TGI [33] was > 100 µM. For the same compound, the GI50 [34] was > 100 µM, the TGI [34] was > 100 µM and the GI50 [35] was > 100 µM. For the same compound, the TGI [35] was > 100 µM, the GI50 [36] was > 100 µM and the TGI [36] was > 100 µM. For the same compound, the GI50 [37] was > 100 µM, the TGI [37] was > 100 µM and the GI50 [38] was > 100 µM. For the same compound, the TGI [38] was > 100 µM, the GI50 [39] was > 100 µM and the TGI [39] was > 100 µM. For the same compound, the GI50 [40] was > 100 µM, the TGI [40] was > 100 µM and the GI50 [41] was > 100 µM. For the same compound, the TGI [41] was > 100 µM, the GI50 [42] was > 100 µM and the TGI [42] was > 100 µM. The GI50 [43] was > 100 µM, the TGI [43] was > 100 µM and the GI50 [44] was > 100 µM. The TGI [44] was > 100 µM, the GI50 [45] was > 100 µM and the TGI [45] was > 100 µM. The GI50 [46] was > 100 µM, the TGI [46] was > 100 µM and the GI50 [47] was > 100 µM. For the same compound, the TGI [47] was > 100 µM, the GI50 [48] was > 100 µM and the TGI [48] was > 100 µM. For the same compound, the GI50 [49] was > 100 µM, the TGI [49] was > 100 µM and the GI50 [50] was > 100 µM. The TGI [50] was > 100 µM, the GI50 [51] was > 100 µM and the TGI [51] was > 100 µM. For the same compound, the GI50 [52] was > 100 µM, the TGI [52] was > 100 µM and the GI50 [53] was > 100 µM. For the same compound, the TGI [53] was > 100 µM, the GI50 [54] was > 100 µM and the TGI [54] was > 100 µM. The GI50 [55] was > 100 µM, the TGI [55] was > 100 µM and the GI50 [56] was > 100 µM. The TGI [56] was > 100 µM, the GI50 [57] was > 100 µM and the TGI [57] was > 100 µM. The GI50 [58] was > 100 µM and the TGI [58] was > 100 µM.
